Results: article PMC8591201, “Anti-Tumor Activity of AZD4547 Against NTRK1 Fusion Positive Cancer Cells Through Inhibition of NTRKs” (Frontiers in Oncology, 2021)

Assays:
[1] = biological target: T1, TRKC (Homo sapiens, UniProt Q16288); assay: radiometric biochemical kinase assay
T1 construct: gene NTRK3

[2] = biological target: T2, TRKA (Homo sapiens, UniProt P04629); assay: radiometric biochemical kinase assay
T2 construct: gene NTRK1

[3] = system: HCC70; assay: cells; parameters: Anti-proliferation, 10-point dose response, CellTiter-Glo luminescence (MTT stated for KM12(Luc)), GI50 fitted in Prism; settings: Homo sapiens, HCC70, 72 h, read-out: GI50 (µM) a
[4] = system: HTH-7; assay: cells; parameters: Anti-proliferation, 10-point dose response, CellTiter-Glo luminescence (MTT stated for KM12(Luc)), GI50 fitted in Prism; settings: KM12-Luc, 72 h, read-out: GI50 (µM) a
[5] = system: MDA-MB-231; assay: cells; parameters: Anti-proliferation, 10-point dose response, CellTiter-Glo luminescence (MTT stated for KM12(Luc)), GI50 fitted in Prism; settings: Homo sapiens, MDA-MB-231, 72 h, read-out: GI50 (µM) a
[6] = system: NCI-H2009; assay: cells; parameters: Anti-proliferation, 10-point dose response, CellTiter-Glo luminescence (MTT stated for KM12(Luc)), GI50 fitted in Prism; settings: Homo sapiens, NCI-H2009, 72 h, read-out: GI50 (µM) a
[7] = in vitro; parameters: CellTiter-Glo viability of parental Ba/F3 cells, counter-screen; settings: mouse, parental ba/f3 cells; read-out: AZD4547 parental
Experimental: To obtain the GI50 value of a substance, cell viability was measured using MTT (G4000, Promega, USA) for KM12(Luc) cell and Cell titer glo (G7572, Promega, USA) for other cell lines. For adherent cells, cells were seeded at 5,000 cells/well in a 96-well plate and treated with a substance one day after cell seeding. For suspension cells, 10,000 cells/well were seeded and the substance was treated after 4 h stabilization of cells. The substance was treated at 10 points of 1:3 serial dilution (0–100 µmol/L) for 72 h. For MTT assay, 15 µL dye solution was added to each well and incubated 4 h at 37°C. 100 µL of solubilization solution was added and followed 1 hr incubation. Absorbance at 570 nm of each well was recorded using EnVision microplate reader (Perkin Elmer). For Cell titer glo assay, Cell titer glo reagent was treated in each well and measured the luminescence by EnVision microplate reader (Perkin Elmer). Viable cells in each well were normalized by using 0.5% DMSO-treated wells (100%). The inhibitor dose−response curve was fitted and GI50 values were calculated using Prism 7.0 software (GraphPad). All assays were performed in duplicate and the standard deviation (SD) was determined from two independent experiments. […] Cell viability after 72 h exposure to the indicated inhibitors, determined by using a cell titer glo assay in duplicate mode. […]

T1 sequence (Q16288 32-839): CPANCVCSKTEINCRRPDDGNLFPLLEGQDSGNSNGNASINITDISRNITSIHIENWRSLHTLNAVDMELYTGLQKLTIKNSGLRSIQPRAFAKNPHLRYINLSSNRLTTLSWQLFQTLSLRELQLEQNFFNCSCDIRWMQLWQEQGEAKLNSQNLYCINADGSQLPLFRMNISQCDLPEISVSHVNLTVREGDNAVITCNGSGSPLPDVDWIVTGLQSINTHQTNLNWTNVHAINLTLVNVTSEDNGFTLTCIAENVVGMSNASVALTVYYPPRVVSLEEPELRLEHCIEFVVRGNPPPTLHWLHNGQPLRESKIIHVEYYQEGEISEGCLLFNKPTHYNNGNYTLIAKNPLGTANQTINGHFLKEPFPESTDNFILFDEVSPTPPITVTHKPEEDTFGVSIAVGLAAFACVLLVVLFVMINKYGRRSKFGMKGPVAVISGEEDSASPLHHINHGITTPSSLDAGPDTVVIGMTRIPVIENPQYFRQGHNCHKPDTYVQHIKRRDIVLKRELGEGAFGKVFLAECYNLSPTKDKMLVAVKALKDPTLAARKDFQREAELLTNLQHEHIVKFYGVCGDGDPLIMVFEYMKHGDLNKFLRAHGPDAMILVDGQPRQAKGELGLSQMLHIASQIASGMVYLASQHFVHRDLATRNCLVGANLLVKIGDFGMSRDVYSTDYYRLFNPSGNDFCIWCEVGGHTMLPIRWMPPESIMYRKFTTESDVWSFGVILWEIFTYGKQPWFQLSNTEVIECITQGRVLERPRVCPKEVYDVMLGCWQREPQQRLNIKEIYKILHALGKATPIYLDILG
T2 sequence (P04629 33-796): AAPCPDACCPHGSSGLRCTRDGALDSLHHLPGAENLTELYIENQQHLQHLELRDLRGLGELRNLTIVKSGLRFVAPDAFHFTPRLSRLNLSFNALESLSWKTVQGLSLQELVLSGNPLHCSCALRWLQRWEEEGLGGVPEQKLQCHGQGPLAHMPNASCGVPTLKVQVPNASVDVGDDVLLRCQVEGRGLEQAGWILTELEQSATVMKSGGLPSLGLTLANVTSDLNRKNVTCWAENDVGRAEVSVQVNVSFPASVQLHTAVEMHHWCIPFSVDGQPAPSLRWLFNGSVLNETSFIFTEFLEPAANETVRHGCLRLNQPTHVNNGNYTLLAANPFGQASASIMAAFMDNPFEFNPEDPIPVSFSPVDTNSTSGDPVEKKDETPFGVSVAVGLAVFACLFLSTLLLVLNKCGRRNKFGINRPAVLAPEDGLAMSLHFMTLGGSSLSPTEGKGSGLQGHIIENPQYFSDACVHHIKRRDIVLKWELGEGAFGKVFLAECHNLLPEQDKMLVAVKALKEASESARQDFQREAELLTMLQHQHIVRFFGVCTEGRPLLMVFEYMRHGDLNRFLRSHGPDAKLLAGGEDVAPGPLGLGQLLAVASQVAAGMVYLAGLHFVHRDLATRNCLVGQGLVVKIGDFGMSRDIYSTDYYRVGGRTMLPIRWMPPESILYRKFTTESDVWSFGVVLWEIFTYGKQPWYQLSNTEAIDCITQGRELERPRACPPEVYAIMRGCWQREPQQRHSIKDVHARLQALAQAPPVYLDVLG

## COc1cc(CCc2cc(NC(=O)c3ccc(N4C[C@@H](C)N[C@@H](C)C4)cc3)n[nH]2)cc(OC)c1 [AZD4547]
[1]
  IC50: 0.001 µM
[2]
  IC50: 0.0088 µM
[3]
  GI50: 16.6 µM
[4]
  GI50: 6.44 µM
[5]
  GI50: 20.9 µM
[6]
  GI50: 50 µM
[7]
  CC50 at 72 h: > 2 µM
